From patent publication US20260285850A1, “SUBSTITUTED OXAZOLIDINONES AND IMIDAZOLINONES AS HERBICIDES” (FMC CORPORATION, priority 2023, published 2026)

Key:
Format in all cases: in vivo
[1] = tested on: barnyardgrass (Echinochloa crus-galli); assay: Test A preemergence soil spray, visual injury rating 0-100; details: 10 days, 0 = no effect, 100 = complete control
Summary of the method: (§1)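 Greenhouse test: loam/sand pots received a surfactant-containing formulation, as a preemergence directed soil spray or a postemergence spray on young plants. Injury was judged visually at day 10 relative to untreated controls.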

[2] = tested on: blackgrass (Alopecurus myosuroides); assay: as above; details: 10 days, 0 = no effect, 100 = complete control
Summary of the method: as §1

corn (Zea mays) [3] = assay: as above; details: 10 days, 0 = no effect, 100 = complete control
Summary of the method: as §1

[4] = tested on: green foxtail (Setaria viridis); assay: as above; details: 10 days, 0 = no effect, 100 = complete control
Summary of the method: as §1

kochia (Bassia scoparia) [5] = assay: as above; details: 10 days, 0 = no effect, 100 = complete control
Summary of the method: as §1

[6] = tested on: oat, wild (wild oat, Avena fatua); assay: as above; details: 10 days, 0 = no effect, 100 = complete control
Summary of the method: as §1

[7] = tested on: palmer (palmer amaranth, palmer pigweed, Amaranthus palmeri); assay: as above; details: 10 days, 0 = no effect, 100 = complete control
Summary of the method: as §1

[8] = tested on: ragweed (common ragweed, Ambrosia artemisiifolia); assay: as above; details: 10 days, 0 = no effect, 100 = complete control
Summary of the method: as §1

[9] = tested on: ryegrass, Italian (italian ryegrass, Lolium multiflorum); assay: as above; details: 10 days, 0 = no effect, 100 = complete control
Summary of the method: as §1

soybean (Glycine max) [10] = assay: as above; details: 10 days, 0 = no effect, 100 = complete control
Summary of the method: as §1

[11] = tested on: wheat (Triticum aestivum); assay: as above; details: 10 days, 0 = no effect, 100 = complete control
Summary of the method: as §1

[12] = tested on: barnyardgrass (Echinochloa crus-galli); assay: Test A postemergence application, visual injury rating 0-100; details: 10 days
Summary of the method: as §1

[13] = tested on: blackgrass (Alopecurus myosuroides); assay: as above; details: 10 days
Summary of the method: as §1

corn (Zea mays) [14] = assay: as above; details: 10 days
Summary of the method: as §1

[15] = tested on: galium (catchweed bedstraw, Galium aparine); assay: as above; details: 10 days
Summary of the method: as §1

[16] = tested on: green foxtail (Setaria viridis); assay: as above; details: 10 days
Summary of the method: as §1

[17] = tested on: horseweed (Erigeron canadensis); assay: as above; details: 10 days
Summary of the method: as §1

kochia (Bassia scoparia) [18] = assay: as above; details: 10 days
Summary of the method: as §1

[19] = tested on: oat, wild (wild oat, Avena fatua); assay: as above; details: 10 days
Summary of the method: as §1

[20] = tested on: palmer (palmer amaranth, palmer pigweed, Amaranthus palmeri); assay: as above; details: 10 days
Summary of the method: as §1

[21] = tested on: ragweed (common ragweed, Ambrosia artemisiifolia); assay: as above; details: 10 days
Summary of the method: as §1

[22] = tested on: ryegrass, Italian (italian ryegrass, Lolium multiflorum); assay: as above; details: 10 days
Summary of the method: as §1

soybean (Glycine max) [23] = assay: as above; details: 10 days
Summary of the method: as §1

[24] = tested on: wheat (Triticum aestivum); assay: as above; details: 10 days
Summary of the method: as §1

[25] = tested on: barnyardgrass (Echinochloa crusgalli); assay: Test B flooded paddy test, visual plant response rating 0-100; details: 250 g ai/ha, Flood, applied to paddy water, evaluated after 13 days
Summary of the method: (§2)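 Treatment occurs at the 2-leaf stage by adding compound to floodwater standing 3 cm above the soil, a level kept for the whole test. Plants stay in the greenhouse 13 days before visual comparison with controls.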

[26] = tested on: ducksalad (Heteranthera limosa); assay: as above; details: 250 g ai/ha, Flood, applied to paddy water, evaluated after 13 days
Summary of the method: as §2

rice (Oryza sativa) = assay: as above; details: 250 g ai/ha, Flood, applied to paddy water, evaluated after 13 days
Summary of the method: as §2

[27] = tested on: sedge, umbrella (small-flower umbrella sedge, Cyperus difformis); assay: as above; details: 250 g ai/ha, Flood, applied to paddy water, evaluated after 13 days
Summary of the method: as §2

[28] = 31 g ai/ha, postemergence, 0 = no effect, 100 = complete control
[29] = Postemergence, 125 g ai/ha, 0 is no effect, 100 is complete control

COC(=O)C1C=CC(NC(=O)C2(C)CN(c3cc(F)cc(Cl)c3)C(=O)O2)C1 (stereo not shown) [Compound 17]
40: Ragweed plant response rating (0 to 100 scale) ([8]; 125 g ai/ha)
60: Blackgrass plant response rating (0-100) [13, 28] | Kochia plant response rating (0-100) (kochia (Bassia scoparia) [18]; [28]) | Plant response rating, Sedge, Umbrella (0 to 100 scale, 0 is no effect and 100 is complete control) [27]
50: Foxtail, Green plant response rating (0-100) ([4]; 31 g ai/ha) | Kochia plant response rating (0-100) (kochia (Bassia scoparia) [5]; 31 g ai/ha) | Soybean plant response rating (0-100) (soybean (Glycine max) [23]; [28])
80: Barnyardgrass plant response rating (0-100) ([1]; 31 g ai/ha) | Corn plant response rating (0 to 100 scale) (corn (Zea mays) [3]; 125 g ai/ha) | Oat, Wild plant response rating (0 to 100 scale) ([6]; 125 g ai/ha) | Soybean plant response rating (0 to 100 scale) (soybean (Glycine max) [10]; 125 g ai/ha) | Wheat plant response rating (0-100) ([11]; 31 g ai/ha) | Galium plant response rating (0-100) [15, 28] | Galium plant response rating (0 to 100 scale) [15, 29] | Foxtail, Green plant response rating (0-100) [16, 28] | Ragweed plant response rating (0 to 100 scale) [21, 29]
100: Barnyardgrass plant response rating (0 to 100 scale) ([1]; 125 g ai/ha) | Foxtail, Green plant response rating (0 to 100 scale) ([4]; 125 g ai/ha) | Kochia plant response rating (0 to 100 scale) (kochia (Bassia scoparia) [5]; 125 g ai/ha) | Amaranth, Palmer plant response rating (0 to 100 scale) ([7]; 125 g ai/ha) | Barnyardgrass plant response rating (0-100) [12, 28] | Barnyardgrass plant response rating (0 to 100 scale) [12, 29] | Corn plant response rating (0 to 100 scale) (corn (Zea mays) [14]; [29])
90: Ryegrass, Italian plant response rating (0-100) ([9]; 31 g ai/ha) | Ryegrass, Italian plant response rating (0 to 100 scale) ([9]; 125 g ai/ha) | Wheat plant response rating (0 to 100 scale) ([11]; 125 g ai/ha) | Blackgrass plant response rating (0 to 100 scale) [13, 29] | Foxtail, Green plant response rating (0 to 100 scale) [16, 29] | Oat, Wild plant response rating (0-100) [19, 28] | Oat, Wild plant response rating (0 to 100 scale) [19, 29] | Amaranth, Palmer / Pigweed, Palmer plant response rating (0 to 100 scale) [20, 29] | Ryegrass, Italian plant response rating (0-100) [22, 28] | Ryegrass, Italian plant response rating (0 to 100 scale) [22, 29] | Soybean plant response rating (0 to 100 scale) (soybean (Glycine max) [23]; [29]) | Wheat plant response rating (0-100) [24, 28] | Wheat plant response rating (0 to 100 scale) [24, 29]
10: Oat, Wild plant response rating (0-100) ([6]; 31 g ai/ha) | Plant response rating, Rice (0 to 100 scale, 0 is no effect and 100 is complete control) (rice (Oryza sativa))
70: Blackgrass plant response rating (0 to 100 scale) ([2]; 125 g ai/ha) | Amaranth, Palmer plant response rating (0-100) ([7]; 31 g ai/ha) | Corn plant response rating (0-100) (corn (Zea mays) [14]; [28]) | Horseweed plant response rating (0 to 100 scale) [17, 29] | Kochia plant response rating (0 to 100 scale) (kochia (Bassia scoparia) [18]; [29]) | Amaranth, Palmer plant response rating (0-100) [20, 28] | Plant response rating, Barnyardgrass (0 to 100 scale, 0 is no effect and 100 is complete control) [25] | Plant response rating, Ducksalad (0 to 100 scale, 0 is no effect and 100 is complete control) [26]
30: Horseweed plant response rating (0-100) [17, 28] | Ragweed plant response rating (0-100) [21, 28]
0: Soybean plant response rating (0-100) (soybean (Glycine max) [10]; 31 g ai/ha)
20: Blackgrass plant response rating (0-100) ([2]; 31 g ai/ha) | Corn plant response rating (0-100) (corn (Zea mays) [3]; 31 g ai/ha) | Ragweed plant response rating (0-100) ([8]; 31 g ai/ha)
